The results in this text go back to US10294229B2, “Heteroaryl substituted aminopyridine compounds” (BRISTOL-MYERS SQUIBB COMPANY, priority 2015, dated 2019).

In general, EC50 refers to the concentration needed to bring the measured effect to its halfway point. A lower EC50 goes with higher potency in that assay. The term IC50 denotes the concentration needed to halve the response being measured. Broadly, the Papp is a coefficient for how fast a substance crosses the barrier.

Series [1] concerns Human whole blood stimulated with a TLR2 agonist (lipoteichoic acid), IL-6 levels. Put plainly: IRAK4 Whole Blood Assay. To be noted: Homo sapiens, lipoteichoic acid 10 μg/mL. The format is cell-based. In short, it runs like this: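 ACD-A-anticoagulated human whole blood was preincubated with compounds for 60 min at 37 °C under 5% CO2. It was then stimulated with 10 μg/mL lipoteichoic acid (final) in RPMI for 5 h. IL-6 in plasma supernatants was measured by flow cytometry bead assay.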

Another series addresses IRAK4 (Homo sapiens (Human), UniProt Q9NWZ3). Put plainly: IRAK4 Inhibition Assay. The format is biochemical. To be noted: ATP 500 μM; IRAK4 0.6 nM. A digest of the protocol: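 Enzyme 0.6 nM, ATP 500 μM, FL-peptide 1.5 μM, DMSO 1.6%; HEPES pH 7.2/MgCl2/Brij 35/DTT buffer. RT, 60 min, EDTA stop. Mobility-shift product/substrate ratio; % inhib vs no-enzyme and vehicle controls.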

Series [2] is described as follows: Caco-2 Permeability Assay. The format is in vitro ADME. To be noted: human, Caco-2, test compound 3 μM. A digest of the protocol:
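Bidirectional permeability measured over 2 h at 37° C, compound dosed at 3 μM in the donor compartment (apical for absorptive, basolateral for secretive) with plain buffer as receiver.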

Chain of IRAK4 (Q9NWZ3 whole entry, species assumed): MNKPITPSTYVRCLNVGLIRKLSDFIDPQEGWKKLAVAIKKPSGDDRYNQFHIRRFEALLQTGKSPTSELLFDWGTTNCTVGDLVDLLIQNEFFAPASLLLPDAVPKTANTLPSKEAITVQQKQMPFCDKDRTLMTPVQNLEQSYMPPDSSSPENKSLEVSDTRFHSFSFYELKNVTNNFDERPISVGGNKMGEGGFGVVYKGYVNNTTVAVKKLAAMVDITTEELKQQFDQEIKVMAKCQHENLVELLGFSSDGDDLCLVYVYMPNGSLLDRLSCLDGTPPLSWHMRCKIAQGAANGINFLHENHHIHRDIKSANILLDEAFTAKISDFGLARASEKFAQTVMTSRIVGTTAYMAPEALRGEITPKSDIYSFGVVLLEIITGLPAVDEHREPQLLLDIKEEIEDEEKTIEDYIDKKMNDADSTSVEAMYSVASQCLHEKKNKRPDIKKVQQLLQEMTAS

In series [1], `CC(C)Nc1cc(-n2ncc3cc(C#N)cnc32)ncc1-c1cn([C@H]2CCN(C(=O)C(C)(C)C)C[C@H]2O)nn1` [Example 179, 1-(5-(1-((3R,4S)-3-hydroxy-1-pivaloylpiperidin-4-yl)-1H-1,2,3-triazol-4-yl)-4-(isopropylamino)pyridin-2-yl)-1H-pyrazolo[3,4-b]pyridine-5-carbonitrile] showed an EC50 of 680 nM. In addition, the IC50 at IRAK4 came to 7 nM. For the same compound, the Papp at 2 h, 3 µM in series [2] came to 1.8 ×10⁻⁶ cm/s.
As to `CC(C)Nc1cc(-n2ncc3cc(C#N)cnc32)ncc1-n1cc(C2CCNCC2)nn1` [Example 334, 1-(4-(isopropylamino)-5-(4-(piperidin-4-yl)-1H-1,2,3-triazol-1-yl)pyridin-2-yl)-1H-pyrazolo[3,4-b]pyridine-5-carbonitrile], the EC50 in series [1] amounted to 70 nM. Also, the IC50 at IRAK4 was 2 nM. This compound registered an apparent permeability coefficient (Papp) at 2 h, 3 µM in series [2] of less than 1.5 ×10⁻⁶ cm/s.
The compound `CC(C)Nc1cc(-n2ncc3cc(C#N)c(N)nc32)ncc1-c1cn(CCCO)nn1` [Example 29, 6-amino-1-(5-(1-(3-hydroxypropyl)-1H-1,2,3-triazol-4-yl)-4-(isopropylamino)pyridin-2-yl)-1H-pyrazolo[3,4-b]pyridine-5-carbonitrile] yielded an EC50 in series [1] of 380 nM. Besides, at IRAK4, the IC50 was determined as 4 nM. Further, in series [2], the apparent permeability coefficient (Papp) at 2 h, 3 µM was less than 1.5 ×10⁻⁶ cm/s.
`CCNc1cc(-n2ncc3cc(C#N)cnc32)ncc1-n1cc(CCC(C)(C)O)nn1` [Example 369, 1-(4-(ethylamino)-5-(4-(3-hydroxy-3-methylbutyl)-1H-1,2,3-triazol-1-yl)pyridin-2-yl)-1H-pyrazolo[3,4-b]pyridine-5-carbonitrile] returned an EC50 in series [1] of 270 nM. The IC50 on IRAK4 is 7 nM. The compound also showed an apparent permeability (Papp) at 2 h, 3 µM in series [2] of 6.7 ×10⁻⁶ cm/s.
On the same counts, the results for `N#Cc1cnc2c(cnn2-c2cc(NC3CC3)c(-c3cn(CCN4CCOCC4)nn3)cn2)c1` [Example 13, 1-(4-(cyclopropylamino)-5-(1-(2-morpholinoethyl)-1H-1,2,3-triazol-4-yl)pyridin-2-yl)-1H-pyrazolo[3,4-b]pyridine-5-carbonitrile] are 270 nM, 3 nM and 22.9 ×10⁻⁶ cm/s.
`CC(C)Nc1cc(-n2ncc3cc(C#N)cnc32)ncc1-c1cc(C2CCNCC2)no1` [Example 403, 1-(4-(isopropylamino)-5-(3-(piperidin-4-yl)isoxazol-5-yl)pyridin-2-yl)-1H-pyrazolo[3,4-b]pyridine-5-carbonitrile]: in series [1], a half-maximal effect (EC50) was put at 230 nM. Besides, the IC50 on IRAK4 worked out at 4 nM. The compound further registered a Papp at 2 h, 3 µM in series [2] of less than 1.5 ×10⁻⁶ cm/s.
Consider `COC(=O)N1CCC(c2cn(-c3cnc(-n4ncc5cc(C#N)cnc54)cc3NC(C)C)nn2)CC1` [Example 338, methyl 4-(1-(6-(5-cyano-1H-pyrazolo[3,4-b]pyridin-1-yl)-4-(isopropylamino)pyridin-3-yl)-1H-1,2,3-triazol-4-yl)piperidine-1-carboxylate], for which the EC50 in series [1] was 380 nM. The IC50 at IRAK4 came to 6 nM. Further, the apparent permeability coefficient (Papp) at 2 h, 3 µM in series [2] stood at 17.9 ×10⁻⁶ cm/s.
In turn, `COC(=O)N1CC(c2cc(-c3cnc(-n4ncc5cc(C#N)cnc54)cc3NC(C)C)on2)C1` [Example 401, methyl 3-(5-(6-(5-cyano-1H-pyrazolo[3,4-b]pyridin-1-yl)-4-(isopropylamino)pyridin-3-yl)isoxazol-3-yl)azetidine-1-carboxylate] registered an EC50 in series [1] of 380 nM. For the same compound, the IC50 on IRAK4 was found to be 4 nM. This compound also came in with a Papp at 2 h, 3 µM in series [2] of 28 ×10⁻⁶ cm/s.
Taken in the same sequence, the figures for `CCCc1cn(-c2cnc(-n3ncc4cc(C#N)cnc43)cc2NC(C)C)nn1` [Example 263, 1-(4-(isopropylamino)-5-(4-propyl-1H-1,2,3-triazol-1-yl)pyridin-2-yl)-1H-pyrazolo[3,4-b]pyridine-5-carbonitrile] were 330 nM, 15 nM and 7.8 ×10⁻⁶ cm/s.
